Laboratory results as given in article PMC6679423 (International Journal of Molecular Sciences, 2019).
Marks after values point to notes of the source that are not given here.

Experiments:
Format in all cases: in vitro ADME
human liver microsomes = assay: Vandetanib metabolite formation by hepatic microsomes of 12 human donors
Description: (§1) Vandetanib was from LC Laboratories (Woburn, MA, USA). Ketoconazole, NADPH, methimazol and other chemicals were all purchased from Sigma-Aldrich (St. Louis, MO, USA). The purity of all chemicals met the standards of American Chemical Society, unless noted otherwise. All animal experiments were conducted in accordance with the Regulations for the Care and Use of Laboratory Animals (311/1997, Ministry of Agriculture, Czech Republic), which follows the Declaration of Helsinki. Male Wistar rats (~125–150 g; AnLab, Czech Republic), male C57BL/6 mice ([…]; CXR Bioscience Ltd., Dundee, UK), and male New Zealand rabbits (2.5–3 kg; AnLab, Czech Republic) were employed as animal models. Animals were placed in cages in temperature- and humidity-controlled rooms, acclimatized for five days and maintained at 22 °C with a 12 h light/dark period. Standardized diet and water were provided ad libitum. Rats, mice and rabbits used to prepare microsomal fraction from untreated animals were sacrificed by cervical dislocation, livers snap-frozen in liquid nitrogen and stored at −80 °C until further processing (see below). For controls, livers of the animals were removed immediately after sacrifice, divided into small pieces (~1 g), snap-frozen in liquid nitrogen, and stored at −80 °C until isolation of microsomal fractions. Pooled microsomes were used for all in vitro experiments in the present study and prepared from 10 livers/group for all animal species following established protocols. Microsomal fractions were stored at −80 °C until analysis. Protein concentrations in the microsomal fractions were assessed using the bicinchoninic acid protein assay with bovine serum albumin as a standard. Male human hepatic microsomes (pooled sample) (sample LOT: 3043885) were from Gentest Corp. (Woburn, MA, USA). Microsomes from livers of twelve human donors were obtained from Gentest Corp. (Woburn, MA, USA) (cat. no. HG43–1, HG103, HG74, HG93, HG24, HG27, HG23, HG32, HK31, HK34, HG03, and HG42). Each human microsomal sample has been characterized for CYP, FMO and protein contents and specific CYP activities by Gentest Corp. We reanalyzed each microsomal preparation for specific CYP, NADPH:CYP reductase (POR) and FMO activities by assays described in the protocols of Gentest Corp. Our data were similar to those reported by Gentest Corp. in their specification sheets. The content of CYP, specific CYP and FMO activities in each human hepatic microsomes [phenacetin-O-deethylation (CYP1A2), coumarin-7-hydroxylation (CYP2A6), (S)-mephenytoin-N-demethylase (CYP2B6), paclitaxel-6α-hydroxylation (CYP2C8), diclofenac-4’-hydroxylation (CYP2C9), (S)-mephenytoin-4′-hydroxylation (CYP2C19), bufuralol-1’-hydroxylation (CYP2D6), chlorzoxazone-6-hydroxylation (CYP2E1), testosterone-6β-hydroxylation (CYP3A4), lauric acid-12-hydroxylation (CYP4A), methyl-p-tolyl sulfide oxidase (FMO)] are shown in Table 2. Human recombinant enzymes were used in the forms of Supersomes™ and obtained from Gentest Corp. In Supersomes™ microsomal fractions were isolated from insect cells that are transfected with baculovirus constructs containing cDNA of human CYP enzymes (CYP1A1/2, 1B1, 2A6, 2B6, 2C8/9/18/19/, 2D6, 2E1, 3A4). These Supersomes™ also express NADPH:CYP oxidoreductase (POR). However, because they are microsomes (particles of broken endoplasmic reticulum), other enzymes (proteins) of the endoplasmic reticulum membrane (like NADH:cytochrome b5 reductase and cytochrome b5) are also expressed at basal levels in these Supersomes™. We also utilized Supersomes™ which over-expressed cytochrome b5, in a molar ratio of CYP to cytochrome b5 of 1 to 5. In Supersomes™ where cytochrome b5 was not over-expressed (see above) pure cytochrome b5 was added to reach a molar ratio of CYP to cytochrome b5 of 1 to 5. Reconstitution of Supersomes™ with purified cytochrome b5 was performed as described previously. […]

human hepatic microsomes = assay: Correlation of CYP- and FMO-linked activities with vandetanib metabolite formation in human hepatic microsomes; details: 12 human liver microsomal samples; for Correlation coefficient (r) of metabolite amount with CYP2B6 activity: (S)-mephenytoin-N-demethylase; for Correlation coefficient (r) of metabolite amount with CYP2A6 activity: coumarine-7-hydroxylase; for Correlation coefficient (r) of metabolite amount with CYP2C8 activity: paclitaxel-6α-hydroxylase; for Correlation coefficient (r) of metabolite amount with CYP3A4 activity: testosterone-6β-hydroxylase
Description: as §1

human recombinant CYP2D6 = target: T1, human recombinant CYP2D6 (Homo sapiens, UniProt P10635); assay: Vandetanib oxidation by human recombinant CYP2D6 (Supersomes)
T1 construct: purchased Gentest Corp; host or cells: insect cells (baculovirus)
T1 sequence (P10635 whole entry): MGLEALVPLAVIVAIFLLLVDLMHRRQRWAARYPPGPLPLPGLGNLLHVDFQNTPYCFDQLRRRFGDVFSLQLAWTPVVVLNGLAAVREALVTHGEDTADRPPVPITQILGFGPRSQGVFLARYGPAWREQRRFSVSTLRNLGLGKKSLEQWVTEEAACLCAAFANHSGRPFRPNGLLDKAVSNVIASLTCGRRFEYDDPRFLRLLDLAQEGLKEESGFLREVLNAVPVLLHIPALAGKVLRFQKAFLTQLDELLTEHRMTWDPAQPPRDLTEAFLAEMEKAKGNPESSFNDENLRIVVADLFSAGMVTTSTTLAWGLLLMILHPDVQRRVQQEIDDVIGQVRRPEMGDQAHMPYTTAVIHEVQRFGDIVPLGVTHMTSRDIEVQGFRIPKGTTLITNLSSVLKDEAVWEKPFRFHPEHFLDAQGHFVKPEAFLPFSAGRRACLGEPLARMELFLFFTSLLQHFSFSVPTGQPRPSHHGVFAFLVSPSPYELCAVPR
Description: The purity of all chemicals met the standards of American Chemical Society, unless noted otherwise. […] Animals were placed in cages in temperature- and humidity-controlled rooms, acclimatized for five days and maintained at 22 °C with a 12 h light/dark period. Standardized diet and water were provided ad libitum. Rats, mice and rabbits used to prepare microsomal fraction from untreated animals were sacrificed by cervical dislocation, livers snap-frozen in liquid nitrogen and stored at −80 °C until further processing (see below). For controls, livers of the animals were removed immediately after sacrifice, divided into small pieces (~1 g), snap-frozen in liquid nitrogen, and stored at −80 °C until isolation of microsomal fractions. Pooled microsomes were used for all in vitro experiments in the present study and prepared from 10 livers/group for all animal species following established protocols. Microsomal fractions were stored at −80 °C until analysis. Protein concentrations in the microsomal fractions were assessed using the bicinchoninic acid protein assay with bovine serum albumin as a standard. […] Microsomes from livers of twelve human donors were obtained from Gentest Corp. (Woburn, MA, USA) (cat. no. HG43–1, HG103, HG74, HG93, HG24, HG27, HG23, HG32, HK31, HK34, HG03, and HG42). […]

human recombinant CYP3A5 = assay: Vandetanib oxidation by human recombinant CYP3A5 (Supersomes)
Description: Vandetanib was from LC Laboratories (Woburn, MA, USA). Ketoconazole, NADPH, methimazol and other chemicals were all purchased from Sigma-Aldrich (St. Louis, MO, USA). The purity of all chemicals met the standards of American Chemical Society, unless noted otherwise. All animal experiments were conducted in accordance with the Regulations for the Care and Use of Laboratory Animals (311/1997, Ministry of Agriculture, Czech Republic), which follows the Declaration of Helsinki. Male Wistar rats (~125–150 g; AnLab, Czech Republic), male C57BL/6 mice ([…]; CXR Bioscience Ltd., Dundee, UK), and male New Zealand rabbits (2.5–3 kg; AnLab, Czech Republic) were employed as animal models. Animals were placed in cages in temperature- and humidity-controlled rooms, acclimatized for five days and maintained at 22 °C with a 12 h light/dark period. Standardized diet and water were provided ad libitum. Rats, mice and rabbits used to prepare microsomal fraction from untreated animals were sacrificed by cervical dislocation, livers snap-frozen in liquid nitrogen and stored at −80 °C until further processing (see below). […] Protein concentrations in the microsomal fractions were assessed using the bicinchoninic acid protein assay with bovine serum albumin as a standard. […]

[1] = without consideration of cytochrome b5

- N-desmethylvandetanib (M1) formed (human liver microsomes; human hepatic microsomal sample HG03): 3.639 peak area/(mg protein × min)
- N-desmethylvandetanib (M1) formed (human liver microsomes; human hepatic microsomal sample HG24): 1.698 peak area/(mg protein × min)
- N-desmethylvandetanib (M1) formed (human liver microsomes; human hepatic microsomal sample HG32): 0.870 peak area/(mg protein × min)
- N-desmethylvandetanib (M1) formed (human liver microsomes; human hepatic microsomal sample HG42): 8.887 peak area/(mg protein × min)
- N-desmethylvandetanib (M1) formed (human liver microsomes; human hepatic microsomal sample HG43): 1.830 peak area/(mg protein × min)
- N-desmethylvandetanib (M1) formed (human liver microsomes; human hepatic microsomal sample HG74): 0.714 peak area/(mg protein × min)
- N-desmethylvandetanib (M1) formed (human liver microsomes; human hepatic microsomal sample HG93): 0.966 peak area/(mg protein × min)
- N-desmethylvandetanib (M1) formed (human liver microsomes; human hepatic microsomal sample HG103): 1.021 peak area/(mg protein × min)
- N-desmethylvandetanib (M1) formed (human liver microsomes; human hepatic microsomal sample HK31): 4.124 peak area/(mg protein × min)
- N-desmethylvandetanib (M1) formed (human liver microsomes; human hepatic microsomal sample HK34): 3.193 peak area/(mg protein × min)
- Correlation coefficient (r) of metabolite amount with Cyt b5 (human hepatic microsomes): −0.114
- Correlation coefficient (r) of metabolite amount with POR (human hepatic microsomes): 0.700
- Correlation coefficient (r) of metabolite amount with Total CYPs (human hepatic microsomes): 0.786 **
- Correlation coefficient (r) of metabolite amount with CYP2C19 activity (human hepatic microsomes; (S)-mephenytoin-4′-hydroxylase): −0.168
- Correlation coefficient (r) of metabolite amount with CYP2B6 activity (human hepatic microsomes): 0.826
- Correlation coefficient (r) of metabolite amount with CYP2B6 activity (human hepatic microsomes; listed as M1): 0.826 ***
- Correlation coefficient (r) of metabolite amount with CYP2D6 activity (human hepatic microsomes; bufuralol-1′-hydroxylase): 0.165
- Correlation coefficient (r) of metabolite amount with CYP2E1 activity (human hepatic microsomes; chlorzoxazone-6-hydroxylase): 0.043
- Correlation coefficient (r) of metabolite amount with CYP2A6 activity (human hepatic microsomes): 0.778
- Correlation coefficient (r) of metabolite amount with CYP2A6 activity (human hepatic microsomes; listed as M1): 0.778 **
- Correlation coefficient (r) of metabolite amount with CYP2C9 activity (human hepatic microsomes; diclofenac-4′-hydroxylase): −0.034
- Correlation coefficient (r) of metabolite amount with FMO activity (human hepatic microsomes; methyl-p-tolyl sulfide oxidase): 0.270
- Correlation coefficient (r) of metabolite amount with CYP2C8 activity (human hepatic microsomes): 0.747
- Correlation coefficient (r) of metabolite amount with CYP2C8 activity (human hepatic microsomes; listed as M1): 0.747 **
- Correlation coefficient (r) of metabolite amount with CYP1A2 activity (human hepatic microsomes; phenacetin-O-deethylase): 0.018
- Correlation coefficient (r) of metabolite amount with CYP3A4 activity (human hepatic microsomes): 0.984
- Correlation coefficient (r) of metabolite amount with CYP3A4 activity (human hepatic microsomes; listed as M1): 0.984 ***
- effect of cytochrome b5 on N-desmethylvandetanib formation (human recombinant CYP2D6; CYP2D6 with vs without cytochrome b5): essentially no such effect
- contribution of CYP2D6 to N-desmethylvandetanib formation in human liver (human recombinant CYP2D6; [1]): ~ 1.7%
- fold increase of N-desmethylvandetanib formation by cytochrome b5 (human recombinant CYP3A5; CYP3A5 with vs without cytochrome b5): 7 fold
- contribution of CYP3A5 to N-desmethylvandetanib formation in human liver (human recombinant CYP3A5; [1]): < 0.3%
Structure (SMILES): COc1cc2c(Nc3ccc(Br)cc3F)ncnc2cc1OCC1CCNCC1 [N-desmethylvandetanib]
